According to patent US5728704A, “Substituted pyridmidines for control of diabetic complications” (Pfizer Inc., priority 1995, dated 1998):

What was measured:
sorbitol dehydrogenase [1] = molecular target: T1, sorbitol dehydrogenase (Ovis aries, UniProt P07846); test: inhibition of sorbitol dehydrogenase in vitro (direct test); assay type: biochemical; conditions: tested directly on sorbitol dehydrogenase in vitro
T1 sequence (P07846 1-354): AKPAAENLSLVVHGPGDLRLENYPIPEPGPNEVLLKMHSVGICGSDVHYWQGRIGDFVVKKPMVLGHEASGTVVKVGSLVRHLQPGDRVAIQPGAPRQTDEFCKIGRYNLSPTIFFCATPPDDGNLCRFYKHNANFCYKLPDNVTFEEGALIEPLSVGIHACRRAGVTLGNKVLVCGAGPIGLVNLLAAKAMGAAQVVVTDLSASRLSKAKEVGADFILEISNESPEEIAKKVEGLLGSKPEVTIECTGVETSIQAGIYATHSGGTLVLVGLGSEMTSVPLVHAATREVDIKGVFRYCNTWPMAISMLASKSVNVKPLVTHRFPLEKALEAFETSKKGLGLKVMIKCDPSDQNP
Protocol: (§1) SDH activity was measured by a modification of the method described by U. Gerlach, Methodology of Enzymatic Analyses, edited by H. U. Bergmeyer, 3, 112-117 (1983). Aliquots of sera or urine were added to the assay system, which had final concentrations of reagents of 0.1M potassium phosphate buffer, pH 7.4, 5 mM NAD, 20 mM sorbitol, and 0.7 units/ml of sorbitol dehydrogenase. After incubation for 10 minutes at room temperature, the average change in sample absorbance was determined at 340 nm. SDH activity was presented as milliOD340 units/minute (OD340 =optical density at 340 nm).
The IC50 values indicate the concentration at which fifty percent inhibition of sorbitol dehydrogenase in vitro was observed.

sorbitol dehydrogenase [2] = molecular target: T1, sorbitol dehydrogenase; test: in vitro inhibition of sorbitol dehydrogenase by urine from dosed rats; assay type: biochemical
Protocol: as §1

[3] = tested on: sciatic nerve fructose and sorbitol; test: sciatic nerve fructose and sorbitol in streptozocin-diabetic rats after a single oral dose; assay type: in vivo, rat (male Sprague-Dawley); conditions: single oral dose 10, 50, 100 or 300 mg/kg, 4-6 hours after dosing (FIG. 4)
Protocol: (§2) Male Sprague-Dawley rats (350-400 g) were used for these experiments. Diabetes was induced in some of the rats by a tail vein injection of streptozocin, 85 mg/kg. Twenty-four hours later, 4 groups of diabetic rats were given a single dose of 4-[4-(N,N-dimethylsulfamoyl)-piperazino]-2-methylpyrimidine (10, 50, 100, or 300 mg/kg) by oral gavage. Animals were sacrificed 4-6 hours after dosing and blood and sciatic nerves were harvested. Tissues and cells were extracted with 6% perchloric acid.
(§3) Sorbitol in erythrocytes and nerves was measured by a modification of the method of R. S. Clements et al. (Science, 166: 1007-8, 1969). […] After incubation for 30 minutes at room temperature, sample fluorescence was determined on a fluorescence spectrophotometer with excitation at 366 nm and emission at 452 nm. After subtracting appropriate blanks, the amount of sorbitol in each sample was determined from a linear regression of sorbitol standards processed in the same manner as the tissue extracts.
(§4) Fructose was determined by a modification of the method described by M. Ameyama, Methods in Enzymology, 89: 20-25 (1982). […] After incubation for 60 minnutes at room temperature, sample fluorescence was determined on a fluorescence spectrophotometer with excitation at 560 nm and emission at 580 nm. […]

sorbitol dehydrogenase [4] = molecular target: T1, sorbitol dehydrogenase; test: in vitro inhibition of sorbitol dehydrogenase by sera from dosed rats; assay type: biochemical; conditions: sera from rats dosed with the compound (FIG. 5)
Protocol: as §2, §1

[5] = tested on: erythrocyte (red blood cell) fructose and sorbitol; test: erythrocyte fructose and sorbitol in streptozocin-diabetic rats after a single oral dose; assay type: in vivo, rat (male Sprague-Dawley); conditions: single oral dose 10, 50, 100 or 300 mg/kg
Protocol: as §2, §3, §4

IC50 (sorbitol dehydrogenase [1]): 500 µM | inhibition of SDH with as little as 0.5 μl of urine (sorbitol dehydrogenase [2]; 0.5 μl of urine of dosed animals (FIG. 6)): strong inhibition
Compound: Cc1nccc(N2CCN(S(=O)(=O)N(C)C)CC2)n1 [Compound 1, 4-[4-(N,N-dimethylsulfamoyl)-piperazino]-2-methylpyrimidine]
SDH inhibitory activity of urine compared with sera (sorbitol dehydrogenase [2]; urine (FIG. 6) compared with sera (FIG. 5)): even more potent source of SDH inhibitory activity | inhibition of SDH in vitro by urine of dosed animals (sorbitol dehydrogenase [2]; urine of animals dosed with the compound (FIG. 6)): potently inhibited SDH in vitro in a dose dependent manner | sciatic nerve sorbitol [3]: increase in sorbitol | inhibition of SDH in vitro by sera from dosed rats (sorbitol dehydrogenase [4]): potently inhibited SDH in vitro in a dose dependent manner | erythrocyte (RBC) fructose ([5]; 4-6 hours after dosing (FIG. 1)): dose dependently lowered | erythrocyte sorbitol ([5]; 4-6 hours after dosing (FIG. 2)): dose dependently raised
